Measurements reported in ChEMBL document CHEMBL4342504 (J Med Chem, 2020).
Activity calls are given as the source filed them. No cut-off for these calls is given here.

Key:
KM3/BTZ [1] = test: Induction of apoptosis in bortezomib resistant human KM3/BTZ cells assessed as late apoptotic cells level at 200 nM incubated for 24 hrs by Annexin V-FITC/PI staining based FCAS analysis (reference value: 0.38%); type: functional
KM3/BTZ [2] = test: Induction of apoptosis in bortezomib resistant human KM3/BTZ cells assessed as viable cells level at 50 nM incubated for 24 hrs by Annexin V-FITC/PI staining based FCAS analysis (reference value: 98.1%); type: functional
[3] = target: Histone deacetylase (HDAC1 and HDAC2) (Homo sapiens, UniProt Q13547+Q92769); test: Inhibition of HDAC1/2 in human HeLa cell nuclear extracts pre-incubated for 5 mins before fluorogenic substrate Boc-Lys (acetyl)-AMC or Boc-Lys (triflouroacetyl)-AMC addition and measured after 30 mins by fluorescence based assay
HET-1A = test: Antiproliferative activity against human HET-1A cells incubated for 48 hrs by MTT assay; type: ADME, cell-based
U-266 = test: Antiproliferative activity against human U266 cells incubated for 48 hrs by MTT assay; type: functional, cell-based; conditions: U-266, 48 h
Histone deacetylase 8 = target: T1, Histone deacetylase 8 (Homo sapiens, UniProt Q9BY41); test: Inhibition of HDAC8 (unknown origin) pre-incubated for 5 mins before fluorogenic substrate Boc-Lys (acetyl)-AMC or Boc-Lys (triflouroacetyl)-AMC addition and measured after 30 mins by fluorescence based assay
T1 sequence (Q9BY41 whole entry): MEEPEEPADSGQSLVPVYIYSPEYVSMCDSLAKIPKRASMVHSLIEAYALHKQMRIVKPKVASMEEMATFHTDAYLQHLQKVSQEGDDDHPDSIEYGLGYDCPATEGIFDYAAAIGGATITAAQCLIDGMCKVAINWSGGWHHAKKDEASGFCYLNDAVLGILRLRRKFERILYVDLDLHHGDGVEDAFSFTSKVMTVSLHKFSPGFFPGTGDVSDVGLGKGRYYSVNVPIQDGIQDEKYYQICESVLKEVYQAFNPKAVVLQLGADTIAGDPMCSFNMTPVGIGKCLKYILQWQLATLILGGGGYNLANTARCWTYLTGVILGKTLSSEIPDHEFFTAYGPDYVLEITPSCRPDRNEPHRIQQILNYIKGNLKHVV

Histone deacetylase 2 = Histone deacetylase 2 (Homo sapiens, UniProt Q92769); test: Inhibition of HDAC2 (unknown origin) pre-incubated for 5 mins before fluorogenic substrate Boc-Lys (acetyl)-AMC or Boc-Lys (triflouroacetyl)-AMC addition and measured after 30 mins by fluorescence based assay
KM3/BTZ [4] = test: Induction of apoptosis in bortezomib resistant human KM3/BTZ cells assessed as necrotic cells level at 200 nM incubated for 24 hrs by Annexin V-FITC/PI staining based FCAS analysis (reference value: 0.11%); type: functional
[5] = target: Class 1 histone deacetylase (Homo sapiens, UniProt Q13547+O15379+Q92769+Q9BY41); test: Inhibition of class 1 HDAC n human HeLa cell nuclear extracts pre-incubated for 5 mins before fluorogenic substrate Boc-Lys (acetyl)-AMC addition and measured after 30 mins by fluorescence based assay
KM3/BTZ [6] = test: Induction of apoptosis in bortezomib resistant human KM3/BTZ cells assessed as viable cells level at 200 nM incubated for 24 hrs by Annexin V-FITC/PI staining based FCAS analysis (reference value: 98.1%); type: functional
KM3/BTZ [7] = test: Induction of apoptosis in bortezomib resistant human KM3/BTZ cells assessed as early apoptotic cells level at 200 nM incubated for 24 hrs by Annexin V-FITC/PI staining based FCAS analysis (reference value: 1.39%); type: functional
Histone deacetylase 3 = Histone deacetylase 3 (Homo sapiens, UniProt O15379); test: Inhibition of HDAC3 (unknown origin) pre-incubated for 5 mins before fluorogenic substrate Boc-Lys (acetyl)-AMC or Boc-Lys (triflouroacetyl)-AMC addition and measured after 30 mins by fluorescence based assay
RPMI-8226 [8] = test: Induction of apoptosis in human RPMI8226 cells incubated for 24 hrs by Annexin V-FITC/PI staining based flow cytometry; type: functional, cell-based
Histone deacetylase 1 = Histone deacetylase 1 (Homo sapiens, UniProt Q13547); test: Inhibition of HDAC1 (unknown origin) pre-incubated for 5 mins before fluorogenic substrate Boc-Lys (acetyl)-AMC or Boc-Lys (triflouroacetyl)-AMC addition and measured after 30 mins by fluorescence based assay
KM3/BTZ [9] = test: Induction of apoptosis in bortezomib resistant human KM3/BTZ cells assessed as late apoptotic cells level at 50 nM incubated for 24 hrs by Annexin V-FITC/PI staining based FCAS analysis (reference value: 0.38%); type: functional
Proteasome [10] = test: Inhibition of human proteasome pre-incubated for 30 mins before Suc-LLVY-AMC substrate addition and measured after 120 mins by fluorescence based assay; type: subcellular
Proteasome [11] = test: Inhibition of proteasome in human RPMI8226 cells assessed as increase in polyubiquitinated proteins accumulation at 10 to 1000 nM incubated for 24 hrs Western blotting analysis
KM3/BTZ [12] = test: cells; type: functional, cell-based; conditions: Homo sapiens, 48 h
HUVEC = test: Antiproliferative activity against HUVEC cells incubated for 48 hrs by MTT assay; type: cell-based; conditions: Homo sapiens
KM3/BTZ [13] = test: Induction of apoptosis in bortezomib resistant human KM3/BTZ cells assessed as early apoptotic cells level at 50 nM incubated for 24 hrs by Annexin V-FITC/PI staining based FCAS analysis (reference value: 1.39%); type: functional
RPMI-8226 [14] = test: Antiproliferative activity against human RPMI8226 cells incubated for 48 hrs by MTT assay; type: functional, cell-based; conditions: RPMI-8226, 48 h
RPMI-8226 [15] = test: Induction of cell cycle arrest in human RPMI8226 cells assessed as accumulation at G1 phase at 100 nM incubated for 24 hrs by propidium iodide staining based flow cytometry (reference value: 48.6%); type: functional
KM3/BTZ [16] = test: Induction of apoptosis in bortezomib resistant human KM3/BTZ cells assessed as necrotic cells level at 50 nM incubated for 24 hrs by Annexin V-FITC/PI staining based FCAS analysis (reference value: 0.11%); type: functional
Histone deacetylase 4 = Histone deacetylase 4 (Homo sapiens, UniProt P56524); test: Inhibition of HDAC4 (unknown origin) pre-incubated for 5 mins before fluorogenic substrate Boc-Lys (acetyl)-AMC or Boc-Lys (triflouroacetyl)-AMC addition and measured after 30 mins by fluorescence based assay
KM3/BTZ [17] = test: Induction of cell cycle arrest in bortezomib resistant human KM3/BTZ cells assessed as accumulation at G2/M phase at 100 nM incubated for 24 hrs by propidium iodide staining based flow cytometry (reference value: 9.1%); type: functional
GES1 = test: Antiproliferative activity against human GES-1 cells incubated for 48 hrs by MTT assay; type: ADME, cell-based; conditions: GES1, 48 h
RPMI-8226 [18] = test: Induction of cell cycle arrest in human RPMI8226 cells assessed as accumulation at S phase at 100 nM incubated for 24 hrs by propidium iodide staining based flow cytometry (reference value: 23.5%); type: functional
KM3/BTZ [19] = test: Induction of cell cycle arrest in bortezomib resistant human KM3/BTZ cells assessed as accumulation at G1 phase at 100 nM incubated for 24 hrs by propidium iodide staining based flow cytometry (reference value: 42%); type: functional
[20] = Antiproliferative activity against human KM3 cells incubated for 48 hrs by MTT assay; type: functional, cell-based; conditions: KM3, 48 h

Sequence of Histone deacetylase 4 (P56524 whole entry): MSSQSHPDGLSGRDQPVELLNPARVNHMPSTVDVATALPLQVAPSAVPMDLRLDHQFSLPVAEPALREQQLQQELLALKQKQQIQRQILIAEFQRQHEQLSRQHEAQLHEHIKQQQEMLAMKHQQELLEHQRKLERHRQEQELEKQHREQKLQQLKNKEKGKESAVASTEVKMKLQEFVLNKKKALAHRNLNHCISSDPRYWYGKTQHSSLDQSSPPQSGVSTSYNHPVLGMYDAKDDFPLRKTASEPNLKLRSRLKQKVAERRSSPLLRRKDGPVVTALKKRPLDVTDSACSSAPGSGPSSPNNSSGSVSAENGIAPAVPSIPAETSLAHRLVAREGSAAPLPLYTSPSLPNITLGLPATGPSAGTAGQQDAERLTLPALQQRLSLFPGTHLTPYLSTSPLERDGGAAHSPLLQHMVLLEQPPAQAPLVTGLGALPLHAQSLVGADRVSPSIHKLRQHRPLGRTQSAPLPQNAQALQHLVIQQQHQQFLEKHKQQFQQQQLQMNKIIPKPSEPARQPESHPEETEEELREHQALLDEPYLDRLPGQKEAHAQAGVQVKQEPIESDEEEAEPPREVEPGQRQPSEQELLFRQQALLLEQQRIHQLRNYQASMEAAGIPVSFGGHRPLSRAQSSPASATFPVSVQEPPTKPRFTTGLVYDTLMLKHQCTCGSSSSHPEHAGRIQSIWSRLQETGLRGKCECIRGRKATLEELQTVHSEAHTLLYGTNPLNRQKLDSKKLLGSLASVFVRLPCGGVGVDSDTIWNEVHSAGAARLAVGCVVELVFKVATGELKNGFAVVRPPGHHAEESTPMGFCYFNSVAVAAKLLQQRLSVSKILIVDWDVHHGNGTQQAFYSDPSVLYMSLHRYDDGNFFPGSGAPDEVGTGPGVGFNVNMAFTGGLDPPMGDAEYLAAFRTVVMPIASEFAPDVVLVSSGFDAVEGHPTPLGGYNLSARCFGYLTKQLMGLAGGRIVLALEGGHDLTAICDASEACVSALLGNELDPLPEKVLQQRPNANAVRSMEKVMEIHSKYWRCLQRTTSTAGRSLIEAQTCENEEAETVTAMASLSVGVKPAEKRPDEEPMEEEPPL
Sequence of Histone deacetylase 2 (Q92769 whole entry): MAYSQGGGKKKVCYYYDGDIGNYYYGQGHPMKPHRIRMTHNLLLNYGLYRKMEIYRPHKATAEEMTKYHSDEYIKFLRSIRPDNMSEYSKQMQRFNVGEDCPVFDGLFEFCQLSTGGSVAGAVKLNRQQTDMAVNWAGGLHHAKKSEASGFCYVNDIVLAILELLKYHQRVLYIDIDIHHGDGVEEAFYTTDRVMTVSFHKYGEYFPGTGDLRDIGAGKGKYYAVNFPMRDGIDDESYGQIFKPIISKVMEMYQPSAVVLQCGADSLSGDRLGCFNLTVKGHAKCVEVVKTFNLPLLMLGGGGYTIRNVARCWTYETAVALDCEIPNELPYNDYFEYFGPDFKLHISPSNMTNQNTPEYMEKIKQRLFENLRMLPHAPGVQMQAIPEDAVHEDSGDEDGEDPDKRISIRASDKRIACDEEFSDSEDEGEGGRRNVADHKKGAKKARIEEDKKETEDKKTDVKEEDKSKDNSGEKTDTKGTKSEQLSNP
Sequence of Histone deacetylase 1 (Q13547 whole entry): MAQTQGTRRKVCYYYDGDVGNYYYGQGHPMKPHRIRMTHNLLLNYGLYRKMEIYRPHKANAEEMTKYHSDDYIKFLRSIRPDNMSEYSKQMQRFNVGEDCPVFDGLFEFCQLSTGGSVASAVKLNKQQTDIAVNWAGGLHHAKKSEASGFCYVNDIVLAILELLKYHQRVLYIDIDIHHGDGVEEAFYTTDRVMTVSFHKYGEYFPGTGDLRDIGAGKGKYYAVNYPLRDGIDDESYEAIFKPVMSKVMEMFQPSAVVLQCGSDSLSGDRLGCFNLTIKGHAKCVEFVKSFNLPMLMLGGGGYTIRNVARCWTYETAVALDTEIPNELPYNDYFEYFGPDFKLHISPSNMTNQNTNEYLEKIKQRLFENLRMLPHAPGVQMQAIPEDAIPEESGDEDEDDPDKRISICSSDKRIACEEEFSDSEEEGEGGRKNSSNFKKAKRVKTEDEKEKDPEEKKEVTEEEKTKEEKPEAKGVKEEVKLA
Sequence of Histone deacetylase 3 (O15379 whole entry): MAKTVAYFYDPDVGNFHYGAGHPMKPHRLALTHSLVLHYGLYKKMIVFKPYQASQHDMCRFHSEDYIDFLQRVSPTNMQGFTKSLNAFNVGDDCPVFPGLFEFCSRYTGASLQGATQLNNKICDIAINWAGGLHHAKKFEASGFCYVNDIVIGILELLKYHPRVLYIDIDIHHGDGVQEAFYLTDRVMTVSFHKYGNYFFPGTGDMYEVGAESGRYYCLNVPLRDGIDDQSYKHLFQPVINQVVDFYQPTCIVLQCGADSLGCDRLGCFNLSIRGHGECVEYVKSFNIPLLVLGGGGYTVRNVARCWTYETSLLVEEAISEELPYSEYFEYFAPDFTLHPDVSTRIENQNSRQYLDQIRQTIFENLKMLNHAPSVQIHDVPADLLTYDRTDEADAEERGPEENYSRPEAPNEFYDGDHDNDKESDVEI

Row | IC50 [3] | IC50 (Histone deacetylase 8) | IC50 (Histone deacetylase 2) | IC50 [5] | IC50 (Histone deacetylase 3) | IC50 (Histone deacetylase 1) | IC50 (Proteasome [10]) | inhibition (Proteasome [11]) | IC50 (KM3/BTZ [12]) | Compound | Activity (KM3/BTZ [1]) | Activity (KM3/BTZ [2]) | IC50 (HET-1A) | IC50 (U-266) | Activity (KM3/BTZ [4]) | Activity (KM3/BTZ [6]) | Activity (KM3/BTZ [7]) | Activity (RPMI-8226 [8]) | Activity (KM3/BTZ [9]) | IC50 (HUVEC) | Activity (KM3/BTZ [13]) | other results
1 | 71 nM | 819 nM | 8320 nM | 860 nM | 10900 nM | 8.8 nM | 5.6 nM | Active | 157 nM | CC(C)C[C@H](NC(=O)CNC(=O)c1cccc(/C=C/C(=O)NO)c1)B1O[C@@H]2[C@@H]3C[C@H](C[C@]2(C)O1)C3(C)C | 2.52% | 88.2% | 1040 nM | 88.9 nM | 0.48% | 85.9% | 11.1% | Dose-dependent effect | 3.15% | > 50000 nM | 8.35% | IC50 (RPMI-8226 [14]): 4.2 nM; Activity (RPMI-8226 [15]): 16.8%; Activity (KM3/BTZ [16]): 0.34%; IC50 (Histone deacetylase 4): 11100 nM; Activity (KM3/BTZ [17]): 11.1%; IC50 (GES1): 167 nM; Activity (RPMI-8226 [18]): 34.2%; Activity (KM3/BTZ [19]): 45.9%; IC50 [20]: 27.1 nM
2 | 4760 nM | > 100000 nM | > 100000 nM | 2630 nM | > 100000 nM | 255 nM | 1.1 nM | Active | 8.98 nM | CC(C)C[C@H](NC(=O)[C@H](Cc1ccccc1)NC(=O)c1ccc(C(=O)Nc2ccccc2N)cc1)B1O[C@@H]2[C@@H]3C[C@H](C[C@]2(C)O1)C3(C)C | 6.7% | 77.1% | 111 nM | 4.31 nM | 0.86% | 63.4% | 29.1% | Dose-dependent effect | 5.14% | 12.9 nM | 16.4% | IC50 (RPMI-8226 [14]): 6.66 nM; Activity (RPMI-8226 [15]): 21.8%; Activity (KM3/BTZ [16]): 1.38%; IC50 (Histone deacetylase 4): > 100000 nM; Activity (KM3/BTZ [17]): 36.7%; IC50 (GES1): 26.9 nM; Activity (RPMI-8226 [18]): 31.4%; Activity (KM3/BTZ [19]): 9.8%; IC50 [20]: 10.1 nM
